The results in this text go back to patent publication US9981976B2, “Piperidine substituted pyrazolo[1,5-A]pyrimidine derivatives with inhibitory activity on the replication of the respiratory syncytial virus (RSV)” (priority 2014, dated 2018).

For one data set, the system named is HeLa cells. The data set can be described thus: Cytotoxicity in HeLa cells, ATP content (ATPlite kit). The note with it: three days incubation, CC50 = 50% concentration for cytotoxicity.
The subject of the next data set is rgRSV224 virus. The data set can be described thus: microbe, parasite or virus in culture. Format: cell-based, respiratory syncytial virus (RSV). To be noted: human respiratory syncytial virus, HeLa, 72 h, read-out: RSV HELA pEC50, rgRSV224 virus (MOI=1), HeLa cells, GFP expression three days post-virus exposure (converted).

Molecules are shown by their SMILES.

Method for HeLa cells: Black 384-well clear-bottom microtiter plates (Corning, Amsterdam, The Netherlands) were filled via acoustic drop ejection using the echo liquid handler (Labcyte, Sunnyvale, Calif.). 200 nL of compound stock solutions (100% DMSO) were transferred to the assay plates. 9 serial 4-fold dilutions of compound were made, creating per quadrant the same compound concentration. The assay was initiated by adding 10 μL of culture medium to each well (RPMI medium without phenol red, 10% FBS-heat inactivated, 0.04% gentamycin (50 mg/mL). All addition steps are done by using a multidrop dispenser (Thermo Scientific, Erembodegem, Belgium). Next, rgRSV224 virus (MOI=1) diluted in culture medium was added to the plates. rgRSV224 virus is an engineered virus that includes an additional GFP gene (Hallak L K, Spillmann D, Collins P L, Peeples M E. Glycosaminoglycan sulfation requirements for respiratory syncytial virus infection; Journal of virology (2000), 74(22), 10508-13) and was in-licensed from the NIH (Bethesda, Md., USA). Finally, 20 μL of a HeLa cell suspension (3,000 cells/well) were plated. Medium, virus- and mock-infected controls were included in each test. The wells contain 0.05% DMSO per volume. Cells were incubated at 37° C. in a 5% CO2 atmosphere. Three days post-virus exposure, viral replication was quantified by measuring GFP expression in the cells by an in house developed MSM laser microscope (Tibotec, Beerse, Belgium). The EC50 was defined as the 50% inhibitory concentration for GFP expression. In parallel, compounds were incubated for three days in a set of white 384-well microtiter plates (Corning) and the cytotoxicity of compounds in HeLa cells was determined by measuring the ATP content of the cells using the ATPlite kit (Perkin Elmer, Zaventem, Belgium) according to the manufacturer's instructions. The CC50 was defined as the 50% concentration for cytotoxicity.

In the case of `CSc1nc(N2CCCCC2c2cc3nc(N4CCC4)cc(N4CCOCC4)n3n2)c2cc(C)ccc2n1` (stereo not shown) [P57, 4-(5-(azetidin-1-yl)-2-(1-(6-methyl-2-(methylthio)quinazolin-4-yl)-piperidin-2-yl)pyrazolo[1,5-a]pyrimidin-7-yl)morpholine], the “SI TOX HELA” value with HeLa cells was found to be 4.5. The EC50 in the data set with rgRSV224 virus is 631 nM.

As to `CCc1cccc2ncnc(N3CCCCC3c3cc4nc(N5CCC5)cc(N5CCOCC5)n4n3)c12` (stereo not shown) [P58, 4-(5-(azetidin-1-yl)-2-(1-(5-ethylquinazolin-4-yl)piperidin-2-yl)-pyrazolo[1,5-a]pyrimidin-7-yl)morpholine], the “SI TOX HELA” value in the data set on HeLa cells was below 4. The EC50 with rgRSV224 virus is 501 nM.

As for `Cc1cc(C)c2c(N3CCCCC3c3cc4nc(N5CCC5)cc(N5CCOCC5)n4n3)ncnc2c1` (stereo not shown) [P59, 4-(5-(azetidin-1-yl)-2-(1-(5,7-dimethylquinazolin-4-yl)piperidin-2-yl)-pyrazolo[1,5-a]pyrimidin-7-yl)morpholine], in the data set on HeLa cells, the “SI TOX HELA” value turned out to be 4.3. Further, the EC50 in the data set on rgRSV224 virus was 398 nM.

As to `Fc1cccc2ncnc(N3CCCCC3c3cc4nc(N5CCC5)cc(N5CCOCC5)n4n3)c12` (stereo not shown) [P60, 4-(5-(azetidin-1-yl)-2-(1-(5-fluoroquinazolin-4-yl)piperidin-2-yl)-pyrazolo[1,5-a]pyrimidin-7-yl)morpholine], the “SI TOX HELA” value in the data set on HeLa cells amounted to 4.3. For the same compound, in the data set on rgRSV224 virus, the EC50 was 126 nM.

For the compound `CCOc1cccc2ncnc(N3CCCCC3c3cc4nc(N5CCC5)cc(N5CCOCC5)n4n3)c12` (stereo not shown) [P61, 4-(5-(azetidin-1-yl)-2-(1-(5-ethoxyquinazolin-4-yl)piperidin-2-yl)-pyrazolo[1,5-a]pyrimidin-7-yl)morpholine], the “SI TOX HELA” value in the data set on HeLa cells is on record as below 4. In the data set on rgRSV224 virus, the EC50 is 31.6 nM.

With `FC(F)(F)c1cccc2ncnc(N3CCCCC3c3cc4nc(N5CCC5)cc(N5CCOCC5)n4n3)c12` (stereo not shown) [P62, 4-(5-(azetidin-1-yl)-2-(1-(5-(trifluoromethyl)quinazolin-4-yl)piperidin-2-yl)pyrazolo[1,5-a]pyrimidin-7-yl)morpholine], the “SI TOX HELA” value in the data set with HeLa cells turned out to be 4.3. Further, the EC50 in the data set with rgRSV224 virus was 100 nM.

Consider `CCc1ccc2ncnc(N3CCCCC3c3cc4nc(N5CCC5)cc(N5CCOCC5)n4n3)c2c1C` (stereo not shown) [P63, 4-(5-(azetidin-1-yl)-2-(1-(6-ethyl-5-methylquinazolin-4-yl)piperidin-2-yl)pyrazolo[1,5-a]pyrimidin-7-yl)morpholine], for which the “SI TOX HELA” value in the data set with HeLa cells worked out at 4.4. Also, the EC50 in the data set on rgRSV224 virus was 398 nM.

As to `Cc1ccc2ncnc(N3CCCCC3c3cc4nc(N5CCC5)cc(N5CCOCC5)n4n3)c2c1C` (stereo not shown) [P64, 4-(5-(azetidin-1-yl)-2-(1-(5,6-dimethylquinazolin-4-yl)piperidin-2-yl)-pyrazolo[1,5-a]pyrimidin-7-yl)morpholine], the “SI TOX HELA” value in the data set with HeLa cells is listed as below 4.6. The EC50 in the data set on rgRSV224 virus is 15.8 nM.

Take `Cc1nc2c(N3CCCCC3c3cc4nc(N5CCC5)cc(N5CCOCC5)n4n3)ncnc2o1` (stereo not shown) [P65, 7-(2-(5-(azetidin-1-yl)-7-morpholinopyrazolo[1,5-a]pyrimidin-2-yl)-piperidin-1-yl)-2-methyloxazolo[5,4-d]pyrimidine]: the “SI TOX HELA” value in the data set with HeLa cells was below 4.6. In the data set with rgRSV224 virus, the EC50 is 15.8 nM.

As to `COC(=O)c1nc(N2CCCCC2c2cc3nc(N4CCC4)cc(N4CCOCC4)n3n2)c2c(C)cccc2n1` (stereo not shown) [P67, methyl 4-(2-(5-(azetidin-1-yl)-7-morpholinopyrazolo[1,5-a]pyrimidin-2-yl)piperidin-1-yl)-5-methylquinazoline-2-carboxylate], the “SI TOX HELA” value in the data set with HeLa cells is below 4.3. Besides, the EC50 in the data set on rgRSV224 virus is 126 nM.

For `Cc1cccc2nc(C(=O)O)nc(N3CCCCC3c3cc4nc(N5CCC5)cc(N5CCOCC5)n4n3)c12` (stereo not shown) [P68, 4-(2-(5-(azetidin-1-yl)-7-morpholinopyrazolo[1,5-a]pyrimidin-2-yl)-piperidin-1-yl)-5-methylquinazoline-2-carboxylic acid], the “SI TOX HELA” value with HeLa cells is recorded as below 4.6. The EC50 in the data set on rgRSV224 virus is 316 nM.
